Source: PMC12491243, “Rational design of indoleamine 2,3-dioxygenase 1 (IDO1) inhibitors featuring 1,2,3-triazole derivatives with enhanced anti-inflammatory and analgesic efficacy” (Frontiers in Pharmacology, 2025)

Key:
Assay type in all cases: in vivo
Iba1 = assay: Western blot of Iba1 in spinal cord of CFA mice; settings: L4–L6 spinal cord, 30 mg/kg i.p. once a day for 3 days, versus vehicle group
Protocol: Given the critical role of microglial activation in inflammation-mediated responses, we investigated whether Compound 14e could modulate microglial activity in the spinal dorsal horn of mice following Complete Freund’s Adjuvant (CFA) injection. First, we assessed the expression of the microglial marker Iba1 in the L4–L6 segments of the spinal cord.
FIGURE 4 Compound 14e prevented the upregulation of Iba1 in CFA mice.
The mice were anesthetized with isoflurane, and 40 μL of CFA (Sigma-Aldrich) was intraplantarly injected into the mid-plantar surface of their left hind paws. As for the control group, an equivalent volume of normal saline was injected ([Jiang et al., 2018]).
(§1) The compound 14e were diluted with 10% DMSO, and were intraperitoneally injected with 30 mg/kg into the mice once a day for 3 days after CFA. The dosage of compound 14e was determined based on our preliminary experiments.
Animals were deeply anesthetized with 1% pentobarbital sodium (0.1 g/kg, i. p.) and the ipsilateral spinal cord in the lumbar enlargement site was rapidly separated and homogenized in ice-cold lysis buffer containing 50 mM Tris-HCl (pH 7.4), 150 mM NaCl, 1% NP-40, 0.1% SDS, 1 mM phenylmethylsulfonyl fluoride and protease phosphatase inhibitor (Solarbio Company, China). […] The protein concentrations were measured using a bicinchoninic acid (BCA) kit (Pierce Biotechnology Inc.). […]

[1] = test system: CFA-induced inflammatory pain model; assay: CFA-induced thermal hyperalgesia, paw withdrawal latency; settings: CFA mice, 30 mg/kg i.p., ipsilateral side, 12 to 72 h post-CFA
Protocol: To evaluate the analgesic effects of Compound 14e in vivo, we established an inflammatory pain model using intraplantar injection of CFA. Compound 14e (30 mg/kg) was administered intraperitoneally at 6 h, with subsequent doses at 48 and 72 h after CFA injection. Behavioral assessments, including von Frey testing for mechanical allodynia and heat stimuli for thermal hyperalgesia, were conducted on the injected hind paw at baseline (BL), as well as at 6, 12, 18, 24, 48 and 72 h post-CFA injection. Additionally, flinching and guarding behaviors, indicators of spontaneous pain, were evaluated 72 h after CFA injection.
FIGURE 5 Compound 14e attenuates mechanical allodynia, thermal hyperalgesia and spontaneous pain of inflammatory pain in mice. (A,B) Evaluation of CFA-induced mechanical allodynia as assessed by withdrawal frequency to 0.07 g (A) and 0.4 g (B) von Frey filaments in mice repetitive treated with 10% DMSO or compound 14e. […]
as §1
For the thermal nociceptive response, paw withdrawal latencies (PWLs) to thermal stimulus were measured by a heat flux radiometer (Ugo Basile S.R.L., Italy) ([Liu et al., 2023]). […]

IL-1β = assay: ELISA of IL-1β in inflamed paw, spinal cord and serum of CFA mice; settings: ipsilateral L4–L6 spinal cord and serum, 72 h after CFA
Source text: To determine whether the analgesic effects of Compound 14e are associated with reduced local and systemic inflammation, we measured the levels of inflammatory factors in the inflamed paw tissue, ipsilateral L4–L6 spinal cord, and peripheral blood. The results indicated a significant increase in the protein levels of TNF-α and IL-1β in the inflamed paw, spinal cord, and serum of mice in the CFA group compared to the vehicle group.
FIGURE 6 Compound 14e reduces TNF-α and IL-1β in the inflamed hindpaw skin, spinal cord and peripheral blood 72 h after CFA-induced inflammation. (A,D) Expression levels of TNF-α and IL-1β in the inflamed skin tissue. (B,E) Expression levels of TNF-α and IL-1β in ipsilateral L4–6 spinal cord. […]
Under anesthesia with 1% pentobarbital sodium, serum was obtained from the mice orbits, after coagulation at room temperature for 2 h, the sample was then centrifuged at 1,000 × g for 20 min at 4 °C, with the supernatant collected. […] The protein concentrations were determined using a bicinchoninic acid (BCA) kit (Pierce Biotechnology Inc.). The following inflammatory factors were measured using Mouse TNF-α ELISA kit (EM0183) and IL-1β ELISA kit (EM0109) obtained from Wuhan Fine Biotechnology Company, according to the product protocols. The O.D. absorbance at 450 nm was quantified in a ultramicroplate spectrophotometer (BioTek Epoch).

## O=C1COc2ccc(NC(=O)c3cccc(-c4cn(Cc5c(F)cccc5Cl)nn4)c3)cc2N1 [Compound 14e]
Iba1
  Iba1 protein level (Western blot): significantly reduced
[1]
  thermal hyperalgesia, paw withdrawal latency (PWL): significantly alleviated
IL-1β
  CFA-induced levels of IL-1β: significantly decreased
